Assay results: ChEMBL document CHEMBL5584347, “Development of Nitric Oxide Releasing Oxoisoaporphines with Antidepressant Activities by Simultaneously Regulating MAO-A and SERT” (J Med Chem, 2024)
Active and inactive are the calls of the source. No cut-off for these calls is given here.

Experiments:
Mus musculus [1] = test: (§1) Antidepressant activity in chronic unpredictable mild stress induced depressive C57 mouse model assessed as reduction in MAO-A activity in brain at 5 to 10 mg/kg administered continuously for 2 weeks post 5 weeks of chronic unpredictable mild stress by colorimetric analysis; assay type: functional, organism-based; conditions: dose 5-10 mg/kg
[2] = Toxicity in C57 mouse assessed as effect on heart structure at 5 to 10 mg/kg administered continuously for 2 weeks by H and E staining based analysis; assay type: organism-based; conditions: in vivo, 336 h, dose 5-10 mg/kg
[3] = Toxicity in C57 mouse assessed as effect on kidney morphology at 5 to 10 mg/kg administered continuously for 2 weeks by H and E staining based analysis; assay type: organism-based; conditions: in vivo, 336 h, dose 5-10 mg/kg
[4] = Toxicity in C57 mouse assessed as effect on liver morphology at 5 to 10 mg/kg administered continuously for 2 weeks by H and E staining based analysis; assay type: organism-based; conditions: in vivo, 336 h, dose 5-10 mg/kg
[5] = Toxicity in C57 mouse assessed as necrosis in liver at 5 to 10 mg/kg administered continuously for 2 weeks by H and E staining based analysis; assay type: organism-based; conditions: in vivo, 336 h, dose 5-10 mg/kg
[6] = Toxicity in C57 mouse assessed as effect on heart pathology at 5 to 10 mg/kg administered continuously for 2 weeks by H and E staining based analysis; assay type: organism-based; conditions: in vivo, 336 h, dose 5-10 mg/kg
[7] = Toxicity in C57 mouse assessed as effect on heart size at 5 to 10 mg/kg administered continuously for 2 weeks by H and E staining based analysis; assay type: organism-based; conditions: in vivo, 336 h, dose 5-10 mg/kg
[8] = Cytotoxicity against rat PC-12 cells incubated for 24 hrs by MTT assay; assay type: toxicity, cell-based
[9] = Toxicity in C57 mouse assessed as effect on kidney structure at 5 to 10 mg/kg administered continuously for 2 weeks by H and E staining based analysis; assay type: organism-based; conditions: in vivo, 336 h, dose 5-10 mg/kg
Mus musculus [10] = test: Antidepressant activity in chronic unpredictable mild stress induced depressive C57 mouse model assessed as reduction in fecal count at 5 to 10 mg/kg administered continuously for 2 weeks post 5 weeks of chronic unpredictable mild stress; assay type: functional, organism-based; conditions: dose 5-10 mg/kg
[11] = Cytotoxicity against human SH-SY5Y cells incubated for 24 hrs by MTT assay; assay type: toxicity, cell-based
Mus musculus [12] = test: Antidepressant activity in chronic unpredictable mild stress induced depressive C57 mouse model assessed as increase in nitric oxide content in brain at 5 to 10 mg/kg administered continuously for 2 weeks post 5 weeks of chronic unpredictable mild stress by absorbance based analysis; assay type: functional, organism-based; conditions: dose 5-10 mg/kg
Danio rerio [13] = test: Antidepressant activity in reserpine-induced depressive zebrafish model assessed as reduction in immobility time at 0.5 to 1 uM preadministered with reserpine for 40 mins followed by compound administration and measured after 7 days by open field test; assay type: functional, organism-based; conditions: dose 0.5-1 µM, time 7.0 day
[14] = Toxicity in C57 mouse assessed as effect on spleen size at 5 to 10 mg/kg administered continuously for 2 weeks by H and E staining based analysis; assay type: organism-based; conditions: in vivo, 336 h, dose 5-10 mg/kg
Mus musculus [15] = test: Antidepressant activity in reserpine induced depressive mouse model assessed as 5-HT level in brain at 10 mg/kg preadministered with reserpine for 3 days followed by compound addition from day 4 to 10 by LC-MS analysis (reference value: 186.46 ng/ml); assay type: functional; conditions: time 7 day
[16] = Toxicity in C57 mouse assessed as effect on liver pathology at 5 to 10 mg/kg administered continuously for 2 weeks by H and E staining based analysis; assay type: organism-based; conditions: in vivo, 336 h, dose 5-10 mg/kg
[17] = Toxicity in C57 mouse assessed as necrosis in kidney at 5 to 10 mg/kg administered continuously for 2 weeks by H and E staining based analysis; assay type: organism-based; conditions: in vivo, 336 h, dose 5-10 mg/kg
[18] = Toxicity in C57 mouse assessed as necrosis in spleen at 5 to 10 mg/kg administered continuously for 2 weeks by H and E staining based analysis; assay type: organism-based; conditions: in vivo, 336 h, dose 5-10 mg/kg
[19] = Toxicity in C57 mouse assessed as effect in spleen pathology at 5 to 10 mg/kg administered continuously for 2 weeks by H and E staining based analysis; assay type: organism-based; conditions: in vivo, 336 h, dose 5-10 mg/kg
[20] = Toxicity in C57 mouse assessed as necrosis in lungs at 5 to 10 mg/kg administered continuously for 2 weeks by H and E staining based analysis; assay type: organism-based; conditions: in vivo, 336 h, dose 5-10 mg/kg
[21] = Toxicity in zebrafish embryo assessed as morphological changes at 0.1 to 10 uM administered with compound starting from 6 hours fertilization and measured at 48 to 120 hours post fertilization; design: species or system Danio rerio; conditions: in vivo, dose lower 0.1 µM, time lower 42 hrs, dose upper 10 µM, time upper 114 hrs
Mus musculus [22] = test: as §1, with “appearance of well arranged neuronal cells” for “reduction”, “hippocampus” for “MAO-A activity in brain”, “H and E staining based” for “colorimetric”; assay type: functional, organism-based; conditions: dose 5-10 mg/kg
Danio rerio [23] = test: Antidepressant activity in reserpine-induced depressive zebrafish model assessed as increase in speed of movement at 0.5 to 1 uM preadministered with reserpine for 40 mins followed by compound administration and measured after 7 days by novel tank test; assay type: functional, organism-based; conditions: dose 0.5-1 µM, time 7.0 day
PC-12 = test: Neuroprotective activity against corticosterone-induced cell injury in rat PC-12 cells assessed as increase in cell viability at 0.1 to 1 uM incubated for 24 hrs by CCK8 assay; assay type: functional, cell-based; conditions: dose 0.1-1 µM
Mus musculus [24] = test: Antidepressant activity in chronic unpredictable mild stress induced depressive C57 mouse model assessed as reduction in resting time at 5 to 10 mg/kg administered continuously for 2 weeks post 5 weeks of chronic unpredictable mild stress by forced swimming test; assay type: functional, organism-based; conditions: dose 5-10 mg/kg
[25] = Toxicity in C57 mouse assessed as effect on spleen structure at 5 to 10 mg/kg administered continuously for 2 weeks by H and E staining based analysis; assay type: organism-based; conditions: in vivo, 336 h, dose 5-10 mg/kg
Mus musculus [26] = test: Antidepressant activity in chronic unpredictable mild stress induced depressive C57 mouse model assessed as increase in body weight at 5 to 10 mg/kg administered continuously for 2 weeks post 5 weeks of chronic unpredictable mild stress; assay type: functional, organism-based; conditions: dose 5-10 mg/kg
Mus musculus [27] = test: Upregulation of 5-HT level in mouse at 10 mg/kg; assay type: functional, organism-based
[28] = Toxicity in C57 mouse assessed as effect on lung size at 5 to 10 mg/kg administered continuously for 2 weeks by H and E staining based analysis; assay type: organism-based; conditions: in vivo, 336 h, dose 5-10 mg/kg
[29] = Toxicity in C57 mouse assessed as effect on kidney pathology at 5 to 10 mg/kg administered continuously for 2 weeks by H and E staining based analysis; assay type: organism-based; conditions: in vivo, 336 h, dose 5-10 mg/kg
Danio rerio [30] = test: Antidepressant activity in reserpine-induced depressive zebrafish model assessed as increase in total distance traveled at 0.5 to 1 uM preadministered with reserpine for 40 mins followed by compound administration and measured after 7 days by open field test; assay type: functional, organism-based; conditions: dose 0.5-1 µM, time 7.0 day
[31] = Cytotoxicity against human L02 cells incubated for 24 hrs by MTT assay; assay type: toxicity, cell-based
[32] = Toxicity in C57 mouse assessed as effect on liver size at 5 to 10 mg/kg administered continuously for 2 weeks by H and E staining based analysis; assay type: organism-based; conditions: in vivo, 336 h, dose 5-10 mg/kg
Danio rerio [33] = test: Antidepressant activity in reserpine-induced depressive zebrafish model assessed as increase in speed of movement at 0.5 to 1 uM preadministered with reserpine for 40 mins followed by compound administration and measured after 7 days by open field test; assay type: functional, organism-based; conditions: dose 0.5-1 µM, time 7.0 day
[34] = Toxicity in C57 mouse assessed as effect on liver structure at 5 to 10 mg/kg administered continuously for 2 weeks by H and E staining based analysis; assay type: organism-based; conditions: in vivo, 336 h, dose 5-10 mg/kg
[35] = Toxicity in C57 mouse assessed as effect on lung pathology at 5 to 10 mg/kg administered continuously for 2 weeks by H and E staining based analysis; assay type: organism-based; conditions: in vivo, 336 h, dose 5-10 mg/kg
[36] = Toxicity in C57 mouse assessed as effect on kidney size at 5 to 10 mg/kg administered continuously for 2 weeks by H and E staining based analysis; assay type: organism-based; conditions: in vivo, 336 h, dose 5-10 mg/kg

O=C1c2ccccc2-c2nccc3cc(OCCCO[N+](=O)[O-])cc1c23
Activity (Mus musculus [1]): Active
Activity [2]: Non-Toxic
Activity [3]: Non-Toxic
Activity [4]: Non-Toxic
Activity [5]: Non-Toxic
Activity [6]: Non-Toxic
Activity [7]: Non-Toxic
IC50 at 24 h [8]: > 10 µM
Activity [9]: Non-Toxic
Activity (Mus musculus [10]): Active
IC50 at 24 h [11]: > 100 µM
Activity (Mus musculus [12]): Active
Activity (Danio rerio [13]): Active
Activity [14]: Non-Toxic
Activity (Mus musculus [15]): 643.87 ng/mL
Activity [16]: Non-Toxic
Activity [17]: Non-Toxic
Activity [18]: Non-Toxic
Activity [19]: Non-Toxic
Activity [20]: Non-Toxic
Activity [21]: Non-Toxic
Activity (Mus musculus [22]): Active
Activity (Danio rerio [23]): Active
Activity (PC-12): Active
Activity (Mus musculus [24]): Active
Activity [25]: Non-Toxic
Activity (Mus musculus [26]): Active
Activity (Mus musculus [27]): Active
Activity [28]: Non-Toxic
Activity [29]: Non-Toxic
Activity (Danio rerio [30]): Active
IC50 at 24 h [31]: > 100 µM
Activity [32]: Non-Toxic
Activity (Danio rerio [33]): Active
Activity [34]: Non-Toxic
Activity [35]: Non-Toxic
Activity [36]: Non-Toxic
